These results are taken from article PMC7665585, “Antidepressive effect of an inward rectifier K^+ channel blocker peptide, tertiapin-RQ” (PLoS ONE, 2020).

Bridge positions count the residues as written; N and C are the ends. Ends that are not written are not given here. Peptide text beside a SMILES is read from it.

The target of one test is T1, rat ROMK (Rattus norvegicus, UniProt P35560).
T1 construct: expressed in transfected cells; host or cells: 293T cell line 208-4 (lentiviral transduction, GFP coexpressed)
T1 sequence (P35560 1-391): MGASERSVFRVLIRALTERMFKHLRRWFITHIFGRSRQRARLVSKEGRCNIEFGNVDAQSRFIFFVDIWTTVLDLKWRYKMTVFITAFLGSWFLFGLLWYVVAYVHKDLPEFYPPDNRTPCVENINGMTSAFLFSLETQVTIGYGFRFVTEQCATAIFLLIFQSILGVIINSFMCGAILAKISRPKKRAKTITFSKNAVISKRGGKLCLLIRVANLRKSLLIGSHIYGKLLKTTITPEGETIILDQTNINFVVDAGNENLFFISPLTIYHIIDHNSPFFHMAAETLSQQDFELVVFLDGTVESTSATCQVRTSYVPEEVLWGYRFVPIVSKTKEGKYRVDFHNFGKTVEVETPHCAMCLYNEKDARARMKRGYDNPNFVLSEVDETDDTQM
The test is described as follows: Whole-cell patch-clamp of ROMK currents in 208–4 cells. To be noted: blockade at 1 μM estimated from fitted Hill curve (four parameters), whole-cell conductance, n = 3–6. The test is classed as cell-based. From the text: The cDNAs for rat ROMK and mouse GIRK1, 2, and 4 were generously donated by Drs Mikio Hayashi (Kansai Medical University) and David Weaver (Vanderbilt University). The ROMK channels were stably expressed by a cell line, 208–4, which was transduced with lentiviral vectors coexpressing the channel and green fluorescent protein (GFP) as described previously. The GIRK genes, cloned in a pCMV6 plasmid (Origene Technologies Inc, Rockville, MD), were transiently expressed in 293T cells with calcium phosphate transfection. GIRK channel currents were recorded 24 h after transfection.
Cells grown on small cover glasses (3 × 18 mm) were placed in a recording chamber. Whole-cell currents were recorded in Tyrode solution using an Axopatch 200B amplifier (Axon Instruments, Foster City, CA) at 25°C. Tyrode solution contained (in mM): NaCl 140, KCl 5.4, NaH2PO4 0.33, CaCl2 2, MgCl2 1, HEPES 5, and glucose 5.5 (pH 7.4 adjusted with NaOH). High K^+ Tyrode solution (KCL 50 mM, NaCl 95 mM, and others were the same as standard Tyrode solution) was used for the recording of GIRK channels. Patch pipettes pulled from borosilicate glass (Narishige, Tokyo, Japan) were filled with an internal solution containing (in mM): K-aspartate 66, KCl 71.5, KH2PO4 1, EGTA 5, HEPES 5, and MgATP 3 (pH 7.4 adjusted with KOH). Recordings were digitized at 10 kHz, and low-pass filtered at 2 kHz. ROMK, Kir2.1, and GIRK currents were evoked with step pulses of 400 msec from -150 mV to 10 mV in 10 mV increments from a holding potential of -70 mV. Whole-cell currents were recorded 60 sec after the peptide application and those from 100 to 300 msec of the step pulses were averaged. Liquid junction potential or capacitive transient was not corrected or compensated. Whole-cell conductance was calculated as the slope of the current-voltage (I-V) relationship from -140 mV to -100 mV and normalized to the initial value (0 μM TPN), in which BaCl2-resistant current was subtracted and indicted as a percentage.
Turning to TPN 3–10 [Peptide 6], the “Activity (ROMK channel blocking activity, percentage of blockade at 1 μM)” value is “- (-, <20%)”. On the same count and under the same terms, for TPN 14–21 [Peptide 17] the value was “- (-, <20%)”; for TPN-RQ(Ins9I) [Peptide 54], “- (-, <20%)”.

Staying with this test, now noted: blockade at 1 μM estimated from fitted Hill curve (four parameters), whole-cell conductance, n = 3–6, read-out: Activity (ROMK channel blocking activity, percentage of blockade at 1 μM).
`CC[C@H](C)[C@@H]1NC(=O)[C@H](CCCNC(=N)N)NC(=O)[C@H](CCCNC(=N)N)NC(=O)[C@H](CC(N)=O)NC(=O)[C@@H]2CSSC[C@@H](C(=O)NCC(=O)N[C@@H](CCCCN)C(=O)N[C@@H](CCCCN)C(N)=O)NC(=O)[C@H](CCCCN)NC(=O)[C@H](CCCCN)NC(=O)[C@H](Cc3c[nH]c4ccccc34)NC(=O)[C@H](CSSC[C@H](NC(=O)[C@H](CC(C)C)NC(=O)[C@H](C)N)C(=O)N[C@@H](CC(N)=O)C(=O)N2)NC(=O)[C@H](CCC(N)=O)NC(=O)[C@H](C)NC(=O)[C@@H]2CCCN2C(=O)[C@H]([C@@H](C)CC)NC1=O` [Peptide 63, TPN-RQ(H12A)] (H-ALCNCNRRIIPAQCWKKCGKK-NH2; disulfide 3-14, 5-18): the inhibition at 1 µM was 40 to 60%.

With IIIPHMCW-NH2 [Peptide 11, TPN 8–15], the inhibition at 1 µM was less than 20%.

As to RRIIPHQC-NH2 [Peptide 20, TPN-RQ 7–14], the inhibition at 1 µM was less than 20%. The same measure, in the same setting: the same measure for `CC[C@H](C)[C@@H]1NC(=O)[C@H](C)NC(=O)[C@H](CCCNC(=N)N)NC(=O)[C@H](CCCNC(=N)N)NC(=O)[C@H](CC(N)=O)NC(=O)[C@@H]2CSSC[C@@H](C(=O)NCC(=O)N[C@@H](CCCCN)C(=O)N[C@@H](CCCCN)C(N)=O)NC(=O)[C@H](CCCCN)NC(=O)[C@H](CCCCN)NC(=O)[C@H](Cc3c[nH]c4ccccc34)NC(=O)[C@H](CSSC[C@H](NC(=O)[C@H](CC(C)C)NC(=O)[C@H](C)N)C(=O)N[C@@H](CC(N)=O)C(=O)N2)NC(=O)[C@H](CCC(N)=O)NC(=O)[C@H](Cc2c[nH]cn2)NC(=O)[C@@H]2CCCN2C1=O` [Peptide 60, TPN-RQ(I9A)] (H-ALCNCNRRAIPHQCWKKCGKK-NH2; disulfide 3-14, 5-18): 40 to 60%. On the same count and under the same terms, for `CC[C@H](C)[C@@H]1NC(=O)[C@H](CCCNC(=N)N)NC(=O)[C@H](CCCNC(=N)N)NC(=O)[C@H](CC(N)=O)NC(=O)[C@@H]2CSSC[C@@H](C(=O)NCC(=O)N[C@@H](CCCCN)C(=O)N[C@@H](CCCCN)C(N)=O)NC(=O)[C@H](CCCCN)NC(=O)[C@H](CCCCN)NC(=O)[C@H](Cc3c[nH]c4ccccc34)NC(=O)[C@H](CSSC[C@H](NC(=O)[C@H](CC(C)C)NC(=O)[C@H](C)N)C(=O)N[C@@H](CC(N)=O)C(=O)N2)NC(=O)[C@H](C)NC(=O)[C@H](Cc2c[nH]cn2)NC(=O)[C@@H]2CCCN2C(=O)[C@H]([C@@H](C)CC)NC1=O` [Peptide 64, TPN-RQ(Q13A)] (H-ALCNCNRRIIPHACWKKCGKK-NH2; disulfide 3-14, 5-18) the value was 20 to 40%; for `CC[C@H](C)[C@@H]1NC(=O)[C@H](CCCNC(=N)N)NC(=O)[C@H](CCCNC(=N)N)NC(=O)[C@H](CC(N)=O)NC(=O)[C@@H]2CSSC[C@@H](C(=O)NCC(=O)N[C@@H](CCCCN)C(=O)N[C@@H](CCCCN)C(N)=O)NC(=O)[C@H](CCCCN)NC(=O)[C@H](CCCCN)NC(=O)[C@H](Cc3c[nH]c4ccccc34)NC(=O)[C@H](CSSC[C@H](NC(=O)[C@H](CC(C)C)NC(=O)[C@H](C)N)C(=O)N[C@@H](C)C(=O)N2)NC(=O)[C@H](CCC(N)=O)NC(=O)[C@H](Cc2c[nH]cn2)NC(=O)[C@@H]2CCCN2C(=O)[C@H]([C@@H](C)CC)NC1=O` [Peptide 56, TPN-RQ(N4A)] (H-ALCACNRRIIPHQCWKKCGKK-NH2; disulfide 3-14, 5-18), 60 to 80%; for `CC[C@H](C)[C@@H]1NC(=O)[C@H](CCCNC(=N)N)NC(=O)[C@H](CCCNC(=N)N)NC(=O)[C@H](CC(N)=O)NC(=O)[C@H](CO)NC(=O)[C@H](CC(N)=O)NC(=O)[C@@H](N)CSSC[C@@H](C(=O)N[C@@H](Cc2c[nH]c3ccccc23)C(=O)N[C@@H](CCCCN)C(N)=O)NC(=O)[C@H](CCC(N)=O)NC(=O)[C@H](CCCCN)NC(=O)[C@@H]2CCCN2C(=O)[C@H]([C@@H](C)CC)NC1=O` [Peptide 42, TPN-RQ 3-16(C5S/H12K)] (H-CNSNRRIIPKQCWK-NH2; disulfide 1-12), less than 20%. Take `CC[C@H](C)[C@@H]1NC(=O)[C@H](CCCNC(=N)N)NC(=O)[C@H](CCCNC(=N)N)NC(=O)[C@H](CC(N)=O)NC(=O)[C@@H]2CSSC[C@@H](C(=O)NCC(=O)N[C@@H](CCCCN)C(=O)N[C@@H](CCCCN)C(N)=O)NC(=O)[C@H](CCCCN)NC(=O)[C@H](CCCCN)NC(=O)[C@H](Cc3c[nH]c4ccccc34)NC(=O)[C@H](CSSC[C@H](NC(=O)[C@H](CC(C)C)NC(=O)[C@H](C)N)C(=O)N[C@@H](CC(N)=O)C(=O)N2)NC(=O)[C@H](CCC(N)=O)NC(=O)[C@H](Cc2c[nH]cn2)NC(=O)[C@H](C)NC(=O)[C@H]([C@@H](C)CC)NC1=O` [Peptide 62, TPN-RQ(P11A)] (H-ALCNCNRRIIAHQCWKKCGKK-NH2; disulfide 3-14, 5-18): the inhibition at 1 µM is greater than 80%. Take “RRIAPHQK-NH2 [Peptide 26, TPN-RQ 7-13(I10A) + K]”: the inhibition at 1 µM was less than 20%. On the same count and under the same terms, the same measure for “RRIIPHQK-NH2 [Peptide 22, TPN-RQ 7–13 + K]”: less than 20%; for `CC[C@H](C)[C@@H]1NC(=O)[C@H](CCCNC(=N)N)NC(=O)[C@H](CCCNC(=N)N)NC(=O)[C@H](CC(N)=O)NC(=O)[C@@H](N)CSSC[C@@H](C(=O)N[C@@H](Cc2c[nH]c3ccccc23)C(=O)N[C@@H](CCCCN)C(=O)N[C@@H](CCCCN)C(N)=O)NC(=O)[C@H](CCC(N)=O)NC(=O)[C@H](Cc2c[nH]cn2)NC(=O)[C@@H]2CCCN2C(=O)[C@H]([C@@H](C)CC)NC1=O` [Peptide 37, TPN-RQ 5–17] (H-CNRRIIPHQCWKK-NH2; disulfide 1-10): less than 20%.

Turning to RRIIPHMC-NH2 [Peptide 19, TPN-R 7–14], the inhibition at 1 µM was less than 20%. Same read-out and setting: for `CC[C@H](C)[C@@H]1NC(=O)[C@H](CCCNC(=N)N)NC(=O)[C@H](CCCNC(=N)N)NC(=O)[C@H](CC(N)=O)NC(=O)[C@H](CO)NC(=O)[C@H](CC(N)=O)NC(=O)[C@@H](N)CSSC[C@@H](C(=O)N[C@@H](Cc2c[nH]c3ccccc23)C(=O)N[C@@H](CCCCN)C(N)=O)NC(=O)[C@H](CCC(N)=O)NC(=O)[C@H](Cc2c[nH]cn2)NC(=O)[C@@H]2CCCN2C(=O)[C@H]([C@@H](C)CC)NC1=O` [Peptide 41, TPN-RQ 3-16(C5S)] (H-CNSNRRIIPHQCWK-NH2; disulfide 1-12) the value was less than 20%; for IPHMCWKK-NH2 [Peptide 13, TPN 10–17], less than 20%; for `CC[C@H](C)[C@@H]1NC(=O)[C@H](CCCNC(=N)N)NC(=O)[C@H](CCCNC(=N)N)NC(=O)[C@H](CC(N)=O)NC(=O)[C@@H](N)CSSC[C@@H](C(=O)N[C@@H](Cc2c[nH]c3ccccc23)C(=O)N[C@@H](CCCCN)C(=O)N[C@@H](CCCCN)C(N)=O)NC(=O)[C@H](CCC(N)=O)NC(=O)[C@H](CCCCN)NC(=O)[C@@H]2CCCN2C(=O)[C@H]([C@@H](C)CC)NC1=O` [Peptide 38, TPN-RQ 5-17(H12K)] (H-CNRRIIPKQCWKK-NH2; disulfide 1-10), less than 20%. For “RRIIPHAK-NH2 [Peptide 29, TPN-RQ 7-13(Q13A) + K]”, the inhibition at 1 µM is less than 20%. Still for that read-out and setting: the same measure for `CC[C@H](C)[C@@H]1NC(=O)[C@H](CCCNC(=N)N)NC(=O)[C@H](CCCNC(=N)N)NC(=O)[C@H](CC(N)=O)NC(=O)[C@@H]2CSSC[C@@H](C(=O)NCC(N)=O)NC(=O)[C@H](CCCCN)NC(=O)[C@H](CCCCN)NC(=O)[C@H](Cc3c[nH]c4ccccc34)NC(=O)[C@H](CSSC[C@H](NC(=O)[C@H](CC(C)C)NC(=O)[C@H](C)N)C(=O)N[C@@H](CC(N)=O)C(=O)N2)NC(=O)[C@H](CCC(N)=O)NC(=O)[C@H](Cc2c[nH]cn2)NC(=O)[C@@H]2CCCN2C(=O)[C@H]([C@@H](C)CC)NC1=O` [Peptide 71, TPN-RQ(Δ20K/Δ21K)] (H-ALCNCNRRIIPHQCWKKCG-NH2; disulfide 3-14, 5-18): 20 to 40%.

Staying with this test, now noted: whole-cell recordings.
With TPN-RQ(Ins9I) [Peptide 54], the “ROMK blocking activity (in words)” value is on record as “abolished the activity”.
